Reference: patent US11484543B2, “Compositions and methods for diagnosing and treating diseases and disorders associated with mutant KCNJ5” (The Rockefeller University, priority 2017, dated 2022)
Residue numbers refer to the chain shown, from its start.

Legend:
KCNJ5^L168R = molecular target: T1, KCNJ5^L168R (Homo sapiens, UniProt P48544, L168R); assay: Cell viability assay (ATP, CellTiter-Glo): rescue of KCNJ5^L168R-induced lethality in inducible HEK293 cells; assay type: cell-based
T1 construct: expressed in transfected cells
T1 sequence (P48544 1-419 L168R): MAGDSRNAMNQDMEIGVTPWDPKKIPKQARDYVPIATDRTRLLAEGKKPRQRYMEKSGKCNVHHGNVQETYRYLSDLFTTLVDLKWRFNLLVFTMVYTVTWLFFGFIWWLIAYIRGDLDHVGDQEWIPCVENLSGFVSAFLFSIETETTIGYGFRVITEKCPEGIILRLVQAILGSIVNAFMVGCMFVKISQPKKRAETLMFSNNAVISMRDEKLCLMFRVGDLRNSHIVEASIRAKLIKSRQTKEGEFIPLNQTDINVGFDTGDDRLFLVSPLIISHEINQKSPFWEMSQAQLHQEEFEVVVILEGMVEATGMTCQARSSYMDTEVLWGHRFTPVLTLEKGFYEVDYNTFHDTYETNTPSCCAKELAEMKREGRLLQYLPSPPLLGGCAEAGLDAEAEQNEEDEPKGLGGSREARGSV

KCNJ5^WT = molecular target: T2, KCNJ5^WT (Homo sapiens, UniProt P48544); assay: Membrane potential assay (FLIPR dye) in inducible KCNJ5^WT HEK293 cells; assay type: cell-based; conditions: tested as in FIG. 7 (FIGS. 9 and 10)
T2 construct: expressed in transfected cells
T2 sequence (P48544 1-419): T1 sequence (P48544 1-419 L168R) with R168L

Row | Molecule | L168R maximum inhibition (KCNJ5^L168R; 10-point dilution 20 to 0.0391 μM, N=3, four-parameter fit) [%] | dose response on KCNJ5^L168R (KCNJ5^L168R; tested at 1.1, 3.3 and 10 μM) | inhibition of KCNJ5^L168R by synthesized macrolide derivatives (KCNJ5^L168R; tested as in FIG. 7 (FIGS. 9 and 10)) | inhibition of KCNJ5^WT by synthesized macrolide derivatives (KCNJ5^WT)
1 | CC[C@H]1OC(=O)[C@H](C)[C@@H](O[C@H]2C[C@@](C)(OC)[C@@H](O)[C@H](C)O2)[C@H](C)[C@@H](O[C@@H]2O[C@H](C)C[C@H](N(C)C)[C@H]2O)[C@](C)(O)C[C@@H](C)/C(=N\OCOCCOC)[C@H](C)[C@@H](O)[C@]1(C)O [Roxithromycin, roxithromycin] | 81.39 | showed a dose response |  | 
2 | N-demethyl-N-isobutyl-8,9-anhydroerythromycin A 6,9-hemiacetal [PLUX37] |  |  | significant inhibition | no inhibition
